# Read-outs that look alike come from different tables or passages of the source.
# Key:
# in vitro [1] = assay: in vitro; design: species or system HB2, CCD841; conditions: human, hek293 cells
# NUDT7 = molecular target: T1, NUDT7 (Homo sapiens, UniProt P0C024); design: Intact protein LC/MS covalent labelling, fragments in pools of five, 200 uM each, 4 °C; conditions: 24 h, 4 °C, pool of five; 200 µM; covalent
# T1 construct: residues 14-235, E. coli, pNIC28-Bsa4, N-terminal His6 tag removed by TEV, construct 26672 Da
# Description: (§1) Incubations were performed at 200 μM for each compound and 2 μM of protein (10 μM for BSA) for 24 h at 4 °C with moderate shaking. Incubation buffers varied among proteins (PBS pH 7.4 for QSOX1 and BSA; 10 mM HEPES pH 7.5, 0.3 M NaCl, 0.5 mM TCEP for PCAF, UPS8, and NUDT7; […]; 10 mM Na2HPO4 pH 7.5 100 mM NaCl 5 mM β-mercaptoethanol for NV3CP; 20 mM Na phosphate pH 7.5 for NNMT; […]. The reaction was stopped by quenching with formic acid, 0.4% final concentration. Each protein was incubated with the electrophilic library in pools of five compounds per well. The pool’s composition maximized the difference in mass between fragments in the same well. Incubations were performed with each fragment at 200 μM, for 24 h at 4 °C, to allow the screening of proteins that are not stable for long time periods at higher temperatures. Following incubation, we used intact protein [compound left out] chromatography/mass spectrometry (LC/MS) to identify the fragments and quantify their labeling (Figure 3A). […] There was good agreement between the percent of labeling of NUDT7 by 100 random individual compounds and that obtained in pools of five (R^2=0.78; Figure S6 and Data set 2 in the Supporting Information).
# BSA = molecular target: T2, BSA (Bos taurus, UniProt P02769); design: Intact protein LC/MS covalent labelling, fragments in pools of five, 200 uM each, 4 °C; conditions: 24 h, 4 °C, pool of five; 200 µM; covalent
# T2 construct: gene ALB
# Description: as §1
# OTUB2 (OTUB2A) = molecular target: T3, OTUB2 (OTUB2A) (Homo sapiens, UniProt Q96DC9); design: Intact protein LC/MS covalent labelling, fragments in pools of five, 200 uM each, 4 °C; conditions: 24 h, 4 °C, pool of five; 200 µM; covalent
# T3 construct: full length residues 1-234, E. coli BL21(DE3)-R3, His tag removed by TEV, construct 27312 Da
# T3 sequence (Q96DC9 1-234): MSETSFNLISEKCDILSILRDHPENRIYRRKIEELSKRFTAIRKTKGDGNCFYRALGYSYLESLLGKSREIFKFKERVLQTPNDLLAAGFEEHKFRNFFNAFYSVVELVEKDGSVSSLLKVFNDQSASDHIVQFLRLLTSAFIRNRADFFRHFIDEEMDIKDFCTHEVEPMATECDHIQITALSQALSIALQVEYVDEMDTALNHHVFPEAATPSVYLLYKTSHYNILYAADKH
# Description: as §1
# PCAF = molecular target: T4, PCAF (Homo sapiens, UniProt Q92831); design: Intact protein LC/MS covalent labelling, fragments in pools of five, 200 uM each, 4 °C; conditions: 24 h, 4 °C, pool of five; 200 µM; covalent
# T4 construct: gene KAT2B
# Description: as §1
# in vitro [2] = assay: in vitro; design: species or system HB2, HEK293; conditions: human, ccd841 cells
# in vitro [3] = assay: in vitro; design: species or system CCD841, HEK293; conditions: human, hb2 cells, read-out: HB-2 Cells Viability (%)
# T4 sequence (Q92831 whole entry, the tested form may be a part): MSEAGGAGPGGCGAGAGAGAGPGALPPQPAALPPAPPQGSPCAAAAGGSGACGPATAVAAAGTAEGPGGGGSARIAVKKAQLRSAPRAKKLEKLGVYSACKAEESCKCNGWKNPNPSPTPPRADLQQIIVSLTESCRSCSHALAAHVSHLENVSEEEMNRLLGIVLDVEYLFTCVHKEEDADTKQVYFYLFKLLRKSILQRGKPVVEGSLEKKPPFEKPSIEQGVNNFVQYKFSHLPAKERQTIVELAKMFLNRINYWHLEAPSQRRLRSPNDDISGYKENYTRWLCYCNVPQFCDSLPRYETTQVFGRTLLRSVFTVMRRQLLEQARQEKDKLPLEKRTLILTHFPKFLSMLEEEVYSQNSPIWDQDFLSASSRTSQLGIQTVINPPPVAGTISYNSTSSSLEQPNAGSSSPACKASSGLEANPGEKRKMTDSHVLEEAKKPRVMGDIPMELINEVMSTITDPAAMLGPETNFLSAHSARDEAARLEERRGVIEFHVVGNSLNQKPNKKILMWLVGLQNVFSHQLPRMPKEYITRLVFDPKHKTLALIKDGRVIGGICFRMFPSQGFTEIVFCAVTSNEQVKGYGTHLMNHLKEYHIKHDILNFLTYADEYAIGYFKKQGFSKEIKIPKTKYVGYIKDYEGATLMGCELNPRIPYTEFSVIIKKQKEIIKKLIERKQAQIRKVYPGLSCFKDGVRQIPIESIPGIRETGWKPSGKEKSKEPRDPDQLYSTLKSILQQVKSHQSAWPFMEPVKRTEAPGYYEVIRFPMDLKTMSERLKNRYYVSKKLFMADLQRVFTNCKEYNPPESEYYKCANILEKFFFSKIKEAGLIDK
# T1 sequence (P0C024 14-235): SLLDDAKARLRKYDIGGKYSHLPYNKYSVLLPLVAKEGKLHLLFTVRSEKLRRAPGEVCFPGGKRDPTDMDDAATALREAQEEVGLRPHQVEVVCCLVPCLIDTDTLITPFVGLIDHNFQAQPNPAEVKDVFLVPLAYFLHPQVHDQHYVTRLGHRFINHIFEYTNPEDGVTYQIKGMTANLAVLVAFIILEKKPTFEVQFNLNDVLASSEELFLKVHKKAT
# T2 sequence (P02769 whole entry, the tested form may be a part): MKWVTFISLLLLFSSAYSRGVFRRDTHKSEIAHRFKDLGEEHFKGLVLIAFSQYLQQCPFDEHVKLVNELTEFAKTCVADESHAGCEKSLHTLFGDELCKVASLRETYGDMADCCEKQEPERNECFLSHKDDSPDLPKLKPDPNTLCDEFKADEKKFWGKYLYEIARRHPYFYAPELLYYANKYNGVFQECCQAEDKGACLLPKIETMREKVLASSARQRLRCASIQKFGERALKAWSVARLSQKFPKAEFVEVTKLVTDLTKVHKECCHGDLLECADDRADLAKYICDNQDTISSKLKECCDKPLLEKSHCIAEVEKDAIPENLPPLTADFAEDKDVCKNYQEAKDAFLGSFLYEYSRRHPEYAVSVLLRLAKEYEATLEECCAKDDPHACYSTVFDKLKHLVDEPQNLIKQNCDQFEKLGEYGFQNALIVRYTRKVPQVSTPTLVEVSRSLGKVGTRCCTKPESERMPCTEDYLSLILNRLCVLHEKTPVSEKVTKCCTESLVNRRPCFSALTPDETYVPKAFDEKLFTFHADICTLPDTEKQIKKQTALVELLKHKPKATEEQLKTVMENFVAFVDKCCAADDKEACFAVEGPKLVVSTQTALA
SMILES,NUDT7 (NUDT7),BSA (BSA),OTUB2 (OTUB2 (OTUB2A)),PCAF (PCAF),"viability at 48 h, 10 µM (in vitro [1])","viability at 48 h, 10 µM (in vitro [2])","viability at 48 h, 10 µM (in vitro [3])"
Cl.O=C(CCl)N1CCN(c2ncccn2)CC1 [PCM-0102093],0,0,0,0,63.9%,83.3%,57.5%
O=C(CCl)N1CCN(c2ccc([N+](=O)[O-])cc2)CC1 [PCM-0102094],0.27,0,0,0,1.3%,9.2%,1.2%
Cc1c(C#N)c(NC(=O)CCl)n(-c2ccc(F)cc2)c1C [PCM-0102099],0.17,0,0,0,11.6%,53.9%,33.6%
O=C(CCl)Nc1ccc(-c2nnc3n2CCCCC3)cc1 [PCM-0102101],0,0,0.28,0,17.5%,61.9%,36.7%
Cc1ccc(C2=NN(C(=O)CCl)C(c3ccco3)C2)o1 (stereo not shown) [PCM-0102102],0.2,0,0,0,1.6%,12.7%,9.4%
CCN1CCC(NC(=O)CCl)CC1.Cl [PCM-0102103],0,0,0,0,66.8%,84.1%,96%
O=C(CCl)Nc1ccc2c(c1)OC1(CCCCC1)O2 [PCM-0102104],0.08,0,0.47,0,1.4%,62.1%,5.9%
CCN(C(=O)CCl)C1CCS(=O)(=O)C1 (stereo not shown) [PCM-0102105],0,0,0,0,54.9%,68.1%,95%
C=CC(=O)NC(=O)NC12CC3CC(CC(C3)C1)C2 [PCM-0102106],0.79,0,0,0,42%,80.9%,26.6%
N#Cc1c2c(n(-c3ccccc3)c1NC(=O)CCl)CCCC2 [PCM-0102107],0.46,0,0.08,0,7.6%,53.9%,18%
O=C(CCl)NC1CCCCNC1=O (stereo not shown) [PCM-0102109],0,0,0,0,109%,103%,94.1%
CC(NC(=O)CCl)c1ccccc1Cl (stereo not shown) [PCM-0102110],0,0,0.25,0,65.7%,74.2%,70.8%
CC(=O)Nc1ccc(NC(=O)CCl)cc1 [PCM-0102114],0,0,0,0,56%,57.7%,69.9%
O=C(CCl)Nc1ccc(Cl)cc1 [PCM-0102120],0.18,0,0.23,0,2.7%,55.2%,16.7%
O=C(CCl)N1CCN(S(=O)(=O)c2ccc(Cl)s2)CC1 [PCM-0102121],0.15,0,0,0,2%,20.6%,1.7%
Cc1c(C#N)sc(NC(=O)CCl)c1C#N [PCM-0102371],0,–,0,0,87.5%,102%,94.3%
C=CC(=O)N1CCC(Cc2ccccn2)CC1 [PCM-0102473],0,–,0,0,98.6%,112%,100%
C=CC(=O)N1CCc2ncsc2C1 [PCM-0102847],0,0,0,0,–,–,–
Cc1ccccc1CN1CCCN(C(=O)CCl)CC1.Cl [PCM-0102911],0,0,0,0,–,–,–
O=C(Nc1ccccc1)NN(C(=O)CCl)c1ccccc1 [PCM-0102957],1,–,0,0,0.8%,1.1%,3.7%
Cc1ccc(CN2CCCN(C(=O)CCl)CC2)cc1.Cl [PCM-0103056],0,0,0,0,–,–,–

# More lines, main results first:
NUDT7 (NUDT7),BSA (BSA),OTUB2 (OTUB2 (OTUB2A)),PCAF (PCAF),SMILES,"viability at 48 h, 10 µM (in vitro [1])","viability at 48 h, 10 µM (in vitro [2])","viability at 48 h, 10 µM (in vitro [3])"
0.51,0,0.26,0,CC(NC(=O)CCl)c1ccc(Cl)c(Cl)c1 (stereo not shown) [PCM-0102096],21.3%,58.1%,28.9%
0,0,0.42,0,O=C(CCl)Nc1cccc2ncccc12 [PCM-0102097],27.9%,51.3%,49%
0.12,0,0.33,0,Cc1ccc([N+](=O)[O-])cc1NC(=O)CCl [PCM-0102098],1.2%,2%,1.1%
0.18,0,0.3,0,O=C(CCl)Nc1ccc(Cl)c(Cl)c1 [PCM-0102112],1.4%,26%,2%
0,0,0.11,0,Cc1cccc(NC(=O)CCl)c1 [PCM-0102116],9%,66.4%,33.7%
0.12,0,0.41,0,CC(NC(=O)CCl)c1cc2ccccc2o1 (stereo not shown) [PCM-0102117],62.9%,70.7%,71%
0,0,0,0,O=C(CCl)NC(=O)NCc1ccccc1 [PCM-0102122],65.5%,76.9%,54.8%
1,–,0.12,0,O=C(CCl)Nc1nc2ccc(Br)cc2s1 [PCM-0102126],92.5%,92.7%,83.6%
0,0,0,0,C=CC(=O)NCc1ccc2cnn(C)c2c1 [PCM-0102947],–,–,–
0,0,0.12,0,C=CC(=O)Nc1ccccc1C [PCM-0103000],–,–,–
0,0,0,0,C=CC(=O)Nc1ccc(OC)cc1 [PCM-0103034],–,–,–
